The source of these data is patent US7419780B2, “Methods and assays for screening protein targets” (The Trustees of Columbia University in the City of New York, priority 2000, dated 2008).

Each structure is given as a SMILES string.

Format in all cases: cell-based, S. cerevisiae
Common to all, as to settings: 1 uM small molecule, difference to activity without small molecule, average of two trials

For test [1], the target named is T1, LexA (GSG)2eDHFR / B42 (GSG)rGR2 (UniProt P06536+P0ABQ4, C656G/F620S).
T1 construct: rat Glucocorticoid Receptor (aa 524-795) with point mutations; expressed in transfected cells; host or cells: S. cerevisiae FY250
T1 sequence (P0ABQ4 1-159): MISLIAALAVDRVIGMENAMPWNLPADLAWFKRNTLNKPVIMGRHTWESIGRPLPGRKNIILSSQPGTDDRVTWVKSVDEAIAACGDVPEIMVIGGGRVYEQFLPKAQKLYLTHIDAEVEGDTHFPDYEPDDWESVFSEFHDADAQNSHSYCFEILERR
T1 sequence (P06536 524-795 F620S/C656G limits assumed): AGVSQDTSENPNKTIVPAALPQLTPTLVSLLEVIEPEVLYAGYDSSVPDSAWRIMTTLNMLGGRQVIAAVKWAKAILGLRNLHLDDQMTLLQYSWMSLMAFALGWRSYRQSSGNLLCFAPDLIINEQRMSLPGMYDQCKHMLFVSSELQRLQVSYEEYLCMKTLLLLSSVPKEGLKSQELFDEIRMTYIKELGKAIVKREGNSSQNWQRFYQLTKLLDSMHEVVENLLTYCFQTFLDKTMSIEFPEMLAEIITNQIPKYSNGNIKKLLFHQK
Kind of test: β-galactosidase activity assay, strain V501Y. An excerpt: (§1) Table III explains the components of each strain. Each strain was constructed from the parent yeast strain FY250 and also contains the pMW106 plasmid, which has the LacZ reporter gene that is turned on only in when the LexA DNA binding domain and the B42 activation are brought in tot he vicinity of each other. We use several different strains because we use DHFR from two different species, mDHFR is from murine, while eDHFR is from E. coli. We are asl oable to switch the small moleculebinding domains. For example, the strain containing LexA-eDHFR with B42-rGH2 is a different strain and behaves differently from the strain containing LexA-rGR2 with B42-eDHFR. We also put in short 6 amino acid linkers between the two domains of our protein chimeras and thus these are different strain as well.
(§2) The results in Table IV are averages of two separate trials. Each strain was examined with small molecules and without small molecules. The absolute activity is given as the β-galactisidase activity […]. The average β-galactosidse activity for a strain without small molecule (i.e. the negative control) was about 100 β-galactosidase units.

The target in test [2] is T2, LexA mDHFR / B42 (GSG)rGR2 (UniProt P00375+P06536, C656G/F620S).
T2 construct: rat Glucocorticoid Receptor (aa 524-795) with point mutations; expressed in transfected cells; host or cells: S. cerevisiae FY250
T2 sequence (P00375 1-187): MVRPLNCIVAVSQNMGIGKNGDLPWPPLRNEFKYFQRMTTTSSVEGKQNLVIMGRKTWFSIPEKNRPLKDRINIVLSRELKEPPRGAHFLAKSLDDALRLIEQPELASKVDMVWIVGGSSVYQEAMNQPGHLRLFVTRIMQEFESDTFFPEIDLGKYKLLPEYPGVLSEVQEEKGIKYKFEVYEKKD
T2 sequence (P06536 524-795 F620S/C656G limits assumed): T1 sequence (P06536 524-795 F620S/C656G limits assumed)
Briefly: β-galactosidase activity assay, strain V497Y.
Description: as §1, §2

In test [3] the target is T3, LexA eDHFR / B42 gly6rGR2 (UniProt P06536+P0ABQ4, C656G/F620S).
T3 construct: rat Glucocorticoid Receptor (aa 524-795) with point mutations; expressed in transfected cells; host or cells: S. cerevisiae FY250
T3 sequence (P0ABQ4 1-159): T1 sequence (P0ABQ4 1-159)
T3 sequence (P06536 524-795 F620S/C656G limits assumed): T1 sequence (P06536 524-795 F620S/C656G limits assumed)
Briefly: β-galactosidase activity assay, strain V375Y.
Description: as §1, §2

The target of test [4] is T4, LexA (GSG)2mDHFR / B42 (GSG)rGR2 (UniProt P00375+P06536, C656G/F620S).
T4 construct: rat Glucocorticoid Receptor (aa 524-795) with point mutations; expressed in transfected cells; host or cells: S. cerevisiae FY250
T4 sequence (P00375 1-187): T2 sequence (P00375 1-187)
T4 sequence (P06536 524-795 F620S/C656G limits assumed): T1 sequence (P06536 524-795 F620S/C656G limits assumed)
Briefly: β-galactosidase activity assay, strain V504Y.
Description: as §1, §2

The target of test [5] is T5, LexA (GSG)2rGR2 / B42 (GSG)2eDHFR (UniProt P06536+P0ABQ4, C656G/F620S).
T5 construct: rat Glucocorticoid Receptor (aa 524-795) with point mutations; expressed in transfected cells; host or cells: S. cerevisiae FY250
T5 sequence (P06536 524-795 F620S/C656G limits assumed): T1 sequence (P06536 524-795 F620S/C656G limits assumed)
T5 sequence (P0ABQ4 1-159): T1 sequence (P0ABQ4 1-159)
Briefly: β-galactosidase activity assay, strain V510Y.
Description: as §1, §2

Test [6] has as its target T6, LexA (GSG)2rGR2 / B42 mDHFR (UniProt P00375+P06536, C656G/F620S).
T6 construct: expressed in transfected cells; host or cells: S. cerevisiae FY250 with pMW106 lacZ reporter
T6 sequence (P06536 524-795 F620S/C656G limits assumed): T1 sequence (P06536 524-795 F620S/C656G limits assumed)
T6 sequence (P00375 1-187): T2 sequence (P00375 1-187)
Kind of test: β-galactosidase activity assay, strain V508Y.
Description: as §1, §2

For test [7], the target named is T7, LexA (GSG)2mDHFR / B42 gly6rGR2 (UniProt P00375+P06536, C656G/F620S).
T7 construct: expressed in transfected cells; host or cells: S. cerevisiae FY250 with pMW106 lacZ reporter
T7 sequence (P00375 1-187): T2 sequence (P00375 1-187)
T7 sequence (P06536 524-795 F620S/C656G limits assumed): T1 sequence (P06536 524-795 F620S/C656G limits assumed)
Briefly: β-galactosidase activity assay, strain V503Y.
Description: as §1, §2

The next test has as its target T8, LexA eDHFR / B42 rGR2 (UniProt P06536+P0ABQ4, C656G/F620S).
T8 construct: rat Glucocorticoid Receptor (aa 524-795) with point mutations; expressed in transfected cells; host or cells: S. cerevisiae FY250
T8 sequence (P0ABQ4 1-159): T1 sequence (P0ABQ4 1-159)
T8 sequence (P06536 524-795 F620S/C656G limits assumed): T1 sequence (P06536 524-795 F620S/C656G limits assumed)
Kind of test: β-galactosidase activity assay, strain V493Y.
Description: as §1, §2

Test [8] concerns the target T9, LexA eDHFR / B42 (GSG)rGR2 (UniProt P06536+P0ABQ4, C656G/F620S).
T9 construct: rat Glucocorticoid Receptor (aa 524-795) with point mutations; expressed in transfected cells; host or cells: S. cerevisiae FY250
T9 sequence (P0ABQ4 1-159): T1 sequence (P0ABQ4 1-159)
T9 sequence (P06536 524-795 F620S/C656G limits assumed): T1 sequence (P06536 524-795 F620S/C656G limits assumed)
Briefly: β-galactosidase activity assay, strain V494Y.
Description: as §1, §2

Test [9] concerns the target T10, LexA rGR2 / B42 (GSG)2eDHFR (UniProt P06536+P0ABQ4, C656G/F620S).
T10 construct: expressed in transfected cells; host or cells: S. cerevisiae FY250 with pMW106 lacZ reporter
T10 sequence (P06536 524-795 F620S/C656G limits assumed): T1 sequence (P06536 524-795 F620S/C656G limits assumed)
T10 sequence (P0ABQ4 1-159): T1 sequence (P0ABQ4 1-159)
Kind of test: β-galactosidase activity assay, strain V509Y.
Description: as §1, §2

Turning to `C[C@@H]1C[C@H]2C3CCC4=CC(=O)C=C[C@]4(C)[C@@]3(F)[C@@H](O)C[C@]2(C)[C@@]1(O)C(=O)NCCSCCCCCCCCSCC[C@H](NC(=O)c1ccc(N(C)Cc2cnc3nc(N)nc(N)c3n2)cc1)C(=O)O` (stereo partly shown) [D8M], the B-gal activity in test [1] was 6660 β-galactosidase units; in test [2], 24 β-galactosidase units; in test [3], 5210 β-galactosidase units; in test [4], 30 β-galactosidase units; in test [5] it was 3163 β-galactosidase units; in [6], −5 β-galactosidase units. Besides, the B-gal activity in test [7] is listed as 45 β-galactosidase units; at LexA eDHFR / B42 rGR2, 5555 β-galactosidase units; in test [8] it was 10568 β-galactosidase units; in test [9], 2734 β-galactosidase units.
